In paper PMC13144739, “Global analysis of cancer cell responses to USP9X inhibition” (The EMBO Journal, 2026):
pKd: −log10 of the molar value. Where “and” joins values, the source holds several entries; their conditions need not be identical. Identical values can stand only once.

What was measured:
[1] = target: T1, USP9X catalytic domain (Homo sapiens, UniProt Q93008); assay: SPR binding assay; conditions: SPR, steady state, mean of three repeats; read-out: KD (steady state affinity)
T1 construct: His/SUMO (pOPIN-S vector) (N, cleaved yes); made in house; host or cells: E. coli BL21
T1 sequence (Q93008 1551-1970): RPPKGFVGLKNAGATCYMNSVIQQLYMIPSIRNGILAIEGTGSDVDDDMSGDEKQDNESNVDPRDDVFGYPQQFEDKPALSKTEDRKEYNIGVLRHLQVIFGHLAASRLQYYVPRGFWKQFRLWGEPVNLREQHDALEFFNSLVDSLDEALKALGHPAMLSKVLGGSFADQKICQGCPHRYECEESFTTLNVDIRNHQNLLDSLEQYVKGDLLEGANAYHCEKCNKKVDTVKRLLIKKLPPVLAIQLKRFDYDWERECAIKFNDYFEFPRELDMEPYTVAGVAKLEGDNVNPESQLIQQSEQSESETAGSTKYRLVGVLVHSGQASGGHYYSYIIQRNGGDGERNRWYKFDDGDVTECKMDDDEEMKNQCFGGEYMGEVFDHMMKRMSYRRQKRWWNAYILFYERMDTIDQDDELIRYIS
Description: Next, the sample was desalted using PD midiTrap™ G-25 (GE Healthcare) columns following the manufacturer’s instructions and was further purified by SEC, concentrated, and stored at -80 °C. Enzyme activity was tested in a ubiquitin-probe assay. SPR experiments were performed on a Biacore 8 K+ instrument (Cytiva). USP9X catalytic domain with a C-terminal AviTag™ was immobilised in 10 mM HEPES, 150 mM NaCl at pH 7.4 on a Series S Sensor Chip SA (Cytiva) by coupling. […] Running buffer was supplemented with 2% (v/v) DMSO. Multi-cycle kinetics were performed with 120 s associations and 600 s dissociations at 30 µL/min with no further regeneration. Binding constants were determined in Biacore Insight evaluation software (v5.0.18) at steady state, taking the median response over a 5-s window beginning at 10 s before the end of the association phase. Final KD values are the mean of three independent experiments.

[2] = target: T1, USP9X catalytic domain; assay: Ub-Rho cleavage assay; format: biochemical; conditions: relative to WEHI-553
Description: The reaction was stopped through the addition of 10 mM citric acid. The assay was performed in 384-well format with a total reaction volume of 16 µL. Data was collected using the ClarioSTAR plate reader (BMG Labtech) at an emission of 535 nm. […] IC50 values presented in our study are the mean of three independent biological repeats unless indicated otherwise.

[3] = system: ACHN cells; assay: Colony formation assay, ACHN; format: cell-based, human; conditions: 10 µM, 7–12 days
Description: (§1) Cells were seeded at low density (200–4000 cells per well) after initial optimisation in a six-well tissue culture-treated plate (Falcon). Twenty-four hours post seeding, media was replaced, and the inhibitor was added. Cells were left to grow into colonies between 7 and 12 days, depending on the cell line. For analysis, the media was removed, and the cells were fixed with 10% (w/v) formalin for 10 min. Colonies were stained with crystal violet (Sigma-Aldrich, 0.5% [w/v] in 20% [v/v] MeOH) for 10 min and washed thrice with distilled H2O. Plates were imaged using the ChemiDoc imaging system (Bio-Rad) and analysed using the ImageJ ColonyArea plugin as described previously (Guzmán et al, [2014]).

[4] = system: HMEC-1 cells; assay: Lattice light sheet imaging of mitosis, HMEC-1; format: cell-based, human; conditions: 15 µM, imaged 24-48 h
Description: MDA-MB-231, MiaPaca2, HMEC-1, SK-MEL-2 and UO-31 cells were seeded at 2–15 × 10^4 cells/mL in 8-well glass µ-slides (ibidi). […] SPY650-Tubulin, SPY555-DNA (both Spirochrome, Inc.), and Annexin V FITC (Sigma-Aldrich) were added at a final concentration of 1 in 1000. Cells were left to grow for 24 h before time-lapse live-cell data were acquired using a Lattice Light Sheet 7 (Zeiss). […] Aberration correction was set to a value of 170 to minimise aberrations as determined by imaging the Point Spread Function using 100 nm fluorescent microspheres. Data were collected with a frame time of 10 ms and a z step of 0.4 μm with 834 frames per 290 μm by 290 μm. Individual regions were imaged in parallel across six wells of the eight-well chamber slide. Data are presented as Maximum Intensity Projections (MIPs), and these MIPs were used for all downstream analysis. Tile regions were imaged for 24 h with 10 min intervals at 37 °C, 5% CO2. Analysis was performed using the MIPs of the different full fields of cells over the 24–48 h time period. Mitosis and mitosis arrest were classified through a combination of automated image analysis and manual validation. […] Small erroneous detected spots were further removed through a manually adjusted size filter. […] The mean intensity of all tracks was then measured to determine mitosis and mitosis arrest. […]

[5] = system: SK-MEL-2 cells; assay: Colony formation assay, SK-MEL-2; format: cell-based, human; conditions: 10 µM, 7–12 days
Description: as §1

[6] = system: HUVECs; assay: IncuCyte live-cell imaging, HUVEC; format: cell-based
Description: (§2) Cells were seeded at varying densities (1000–8000 cells per well) after initial optimisation in a 96-well tissue culture-treated plate (Thermo Fisher Scientific). Cells were incubated o/n, and the next day, inhibitors and controls diluted in cell media were added to the cells to a final volume of 200 μL per well. Cell death was measured using PI (Sigma-Aldrich). Cells were imaged with four images per well every 2 h for up to 96 h using the IncuCyte live-cell analysis system (S3, Sartorius). Cell proliferation data were analysed using Microsoft Excel by normalising confluence to control conditions. For cell killing readouts, the number of PI-positive cells was normalised to the control conditions for each timepoint.

[7] = system: ACHN cells; assay: IncuCyte live-cell imaging cell death, ACHN; format: cell-based, human; conditions: 10 µM
Description: as §2

**Q.** What does the source list for `Cc1[nH]c2ccc(C(=O)N3CCN(S(=O)(=O)c4ccc5c(c4)OCCO5)CC3)cc2c1C` [WEHI-092]?
**A.** pKd [1]: 6.00 and 5.98; improvement of IC50 towards USP9X by SAR [2]: > 16 fold; clonogenic potential, ACHN [3]: apparent increase in cell proliferation; cell division phenotype, HMEC-1 [4]: proceeded through mitosis normally; clonogenic potential, SK-MEL-2 [5]: sensitive; toxicity to HUVECs [6]: non-lethal and non-toxic; response of ACHN cells (cell death) [7]: limited response
